Experimental data taken from US9012443B2 (Amgen Inc., priority 2011, dated 2015).

Legend:
[1] = target: T1, Nav 1.7 (Homo sapiens (Human), UniProt Q15858); assay: Nav 1.7 in vitro PX assay (PatchXpress whole cell voltage clamp); assay type: cell-based; conditions: 293 cells, human Nav1.7, partially inactivated state; read-out: Nav1.7 PX IC50 IP
Summary of the method: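 Partially inactivated channel state (holding potential for 20–50% inactivation) probed in human Nav1.7-transfected 293 cells by automated patch clamp, test pulse −10 mV for 20 msec.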

[2] = target: T1, Nav 1.7; assay: Nav 1.7 IWQ in vitro assay (IonWorks Quattro population patch-clamp); assay type: cell-based; conditions: for IC50: 293 cells stably transfected with Nav 1.7
Summary of the method: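 Percent block, measured in duplicate, came from peak minus end-of-pulse current on the 26th −20 mV step, and IC50 was fitted against concentration. Stably transfected 293 cells were recorded in population patch-clamp mode before and after a single test concentration, which was added over 3–8 min while cells were unclamped.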

[3] = second part of table, read-out: Nav1.7 IWQ IC50 IP
[4] = first part of table, read-out: Nav 1.7 IWQ IC50

T1 sequence (Q15858 whole entry): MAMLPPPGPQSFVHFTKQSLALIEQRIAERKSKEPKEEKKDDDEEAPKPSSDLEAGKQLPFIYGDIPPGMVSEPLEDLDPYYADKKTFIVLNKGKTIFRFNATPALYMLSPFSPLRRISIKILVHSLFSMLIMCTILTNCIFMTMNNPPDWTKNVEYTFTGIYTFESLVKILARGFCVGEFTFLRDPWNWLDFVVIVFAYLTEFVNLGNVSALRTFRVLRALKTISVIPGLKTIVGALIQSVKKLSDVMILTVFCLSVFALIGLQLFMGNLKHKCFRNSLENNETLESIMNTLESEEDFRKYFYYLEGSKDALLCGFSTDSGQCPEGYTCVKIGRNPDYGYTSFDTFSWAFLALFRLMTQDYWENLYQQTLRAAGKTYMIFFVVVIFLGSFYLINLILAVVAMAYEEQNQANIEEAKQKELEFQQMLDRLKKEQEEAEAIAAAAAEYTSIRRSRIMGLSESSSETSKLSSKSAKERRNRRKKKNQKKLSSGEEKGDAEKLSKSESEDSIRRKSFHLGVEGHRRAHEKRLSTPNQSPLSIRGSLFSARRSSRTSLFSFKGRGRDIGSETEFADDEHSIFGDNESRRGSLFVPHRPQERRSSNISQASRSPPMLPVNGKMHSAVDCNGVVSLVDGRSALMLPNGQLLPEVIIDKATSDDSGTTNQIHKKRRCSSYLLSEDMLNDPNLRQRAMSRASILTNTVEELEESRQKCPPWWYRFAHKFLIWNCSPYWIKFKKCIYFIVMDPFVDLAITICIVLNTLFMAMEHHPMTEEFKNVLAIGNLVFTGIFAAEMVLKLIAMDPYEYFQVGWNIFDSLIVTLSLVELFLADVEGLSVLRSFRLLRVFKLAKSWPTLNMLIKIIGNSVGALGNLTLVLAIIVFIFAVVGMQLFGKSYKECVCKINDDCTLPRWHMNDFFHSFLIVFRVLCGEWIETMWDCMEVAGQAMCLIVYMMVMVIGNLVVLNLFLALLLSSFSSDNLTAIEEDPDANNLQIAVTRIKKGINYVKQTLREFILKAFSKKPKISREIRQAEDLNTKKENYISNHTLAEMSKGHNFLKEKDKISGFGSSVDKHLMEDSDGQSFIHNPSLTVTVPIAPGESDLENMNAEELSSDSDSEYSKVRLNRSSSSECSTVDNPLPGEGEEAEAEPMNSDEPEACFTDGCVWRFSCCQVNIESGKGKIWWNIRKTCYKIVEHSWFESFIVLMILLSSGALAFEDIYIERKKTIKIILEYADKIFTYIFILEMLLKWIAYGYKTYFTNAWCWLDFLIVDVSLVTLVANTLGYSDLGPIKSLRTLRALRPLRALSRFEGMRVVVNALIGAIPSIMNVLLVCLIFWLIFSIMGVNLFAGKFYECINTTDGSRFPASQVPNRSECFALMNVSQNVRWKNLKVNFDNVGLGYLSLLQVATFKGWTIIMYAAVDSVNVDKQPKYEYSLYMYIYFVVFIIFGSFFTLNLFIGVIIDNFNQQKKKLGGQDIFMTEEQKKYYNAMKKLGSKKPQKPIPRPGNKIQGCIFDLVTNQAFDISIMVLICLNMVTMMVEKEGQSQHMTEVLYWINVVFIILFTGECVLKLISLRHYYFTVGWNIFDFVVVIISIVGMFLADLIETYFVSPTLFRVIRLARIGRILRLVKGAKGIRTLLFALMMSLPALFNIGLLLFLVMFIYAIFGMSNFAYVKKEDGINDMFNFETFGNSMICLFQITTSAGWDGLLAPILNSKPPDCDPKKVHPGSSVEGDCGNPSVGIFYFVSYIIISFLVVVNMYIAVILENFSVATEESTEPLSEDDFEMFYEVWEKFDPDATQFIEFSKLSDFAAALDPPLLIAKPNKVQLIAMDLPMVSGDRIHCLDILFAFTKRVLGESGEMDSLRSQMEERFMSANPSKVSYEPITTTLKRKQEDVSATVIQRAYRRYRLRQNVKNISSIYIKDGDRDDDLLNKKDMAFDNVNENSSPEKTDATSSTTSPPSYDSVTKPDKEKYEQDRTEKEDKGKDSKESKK

Row | Compound | IC50 [2, 3] | IC50 [2, 4] | Nav1.7 Single Point Data IWQ (at […]) (%) [2] | also measured
1 | O=S(=O)(Nc1ccncn1)c1ccc2c(-c3ccc(C(F)(F)F)cc3Cl)nccc2c1 [Example 156, 1-(2-CHLORO-4-(TRIFLUOROMETHYL)PHENYL)-N-(PYRIMIDIN-4-YL)ISOQUINOLINE-6-SULFONAMIDE] | 220 nM | – | – | IC50 [1]: 2850 nM
2 | O=S(=O)(Nc1ncns1)c1ccc2c(C3CCCN3)cccc2c1 (stereo not drawn) [Example 95, 5-(PYRROLIDIN-2-YL)-N-(1,2,4-THIADIAZOL-5-YL)NAPHTHALENE-2-SULFONAMIDE 2,2,2-TRIFLUOROACETATE] | 540 nM | – | – | IC50 [1]: 7960 nM
3 | Cc1ccc(-c2cccc3cc(S(=O)(=O)Nc4ncns4)ccc23)c(Cl)c1 [Example 6] | – | 340 nM | – | –
4 | COc1cnccc1NS(=O)(=O)c1ccc2c(-c3ccc(C(F)(F)F)cc3Cl)nccc2c1 [Example 52, 1-(2-CHLORO-4-(TRIFLUOROMETHYL)PHENYL)-N-(3-METHOXYPYRIDIN-4-YL)ISOQUINOLINE-6-SULFONAMIDE] | – | – | – | inhibition at […] ([2]; read-out: Nav 1.7 IWQ percent inhibition at […], read-out: Nav 1.7 IWQ percent inhibition at 4.9 μM): 16%
5 | COc1cc(C(F)(F)F)ccc1-c1cccc2cc(S(=O)(=O)Nc3ccncn3)ccc12 [Example 42] | – | 50 nM | – | –
6 | O=S(=O)(Nc1ccncn1)c1ccc2c(-c3ccc(C(F)(F)F)cc3-c3ccncc3)nccc2c1 [Example 65, 1-(2-(PYRIDIN-4-YL)-4-(TRIFLUOROMETHYL)PHENYL)-N-(PYRIMIDIN-4-YL)ISOQUINOLINE-6-SULFONAMIDE] | – | 320 nM | – | –
7 | COc1cc(C(F)(F)F)ccc1-c1nccc2cc(S(=O)(=O)Nc3ccncn3)ccc12 [Example 67, 1-(2-METHOXY-4-(TRIFLUOROMETHYL)PHENYL)-N-(PYRIMIDIN-4-YL)ISOQUINOLINE-6-SULFONAMIDE] | – | 80 nM | – | –
8 | Cc1cc(Cl)ccc1-c1nccc2cc(S(=O)(=O)Nc3ncns3)ccc12 [Example 62] | – | 90 nM | – | –
9 | Cn1nccc1-c1cc(C(F)(F)F)ccc1-c1cccc2cc(S(=O)(=O)Nc3ccncn3)ccc12 [Example 74] | – | 80 nM | – | –
10 | O=S(=O)(Nc1ncns1)c1ccc2c(-c3ccc(C(F)(F)F)cc3-c3cn[nH]c3)cccc2c1 [Example 21] | – | 20 nM | – | –
11 | O=S(=O)(Nc1ncns1)c1ccc2c(-c3ccc(Cl)cc3C(F)(F)F)nccc2c1 [Example 63, 1-(4-CHLORO-2-(TRIFLUOROMETHYL)PHENYL)-N-(1,2,4-THIADIAZOL-5-YL)ISOQUINOLINE-6-SULFONAMIDE] | – | 330 nM | – | –
12 | CC1(c2ccccc2)CN(c2cccc3cc(S(=O)(=O)Nc4ncns4)ccc23)CCO1 (stereo not drawn) [Example 15] | – | 1290 nM | – | –
13 | O=S(=O)(Nc1nccs1)c1ccc2c(-c3ccc(C(F)(F)F)cc3Cl)cccc2c1 [Example 79] | – | 900 nM | – | –
14 | CCC1CN(c2cccc3cc(S(=O)(=O)Nc4ncns4)ccc23)CCO1 (stereo not drawn) [Example 18] | – | 710 nM | – | –
15 | O=S(=O)(Nc1ncns1)c1ccc2c(N3CCOC(c4ccccc4)C3)cccc2c1 (racemic) [Example 14 (mixture of isomers)] | – | 300 nM | – | –
16 | COC(=O)C1CN(c2cccc3cc(S(=O)(=O)Nc4ncns4)ccc23)CCO1 (stereo not drawn) [Example 17, METHYL 4-(6-(N-(1,2,4-THIADIAZOL-5-YL)SULFAMOYL)NAPHTHALEN-1-YL)MORPHOLINE-2-CARBOXYLATE] | – | 4560 nM | – | –
17 | COc1cc(C(F)(F)F)ccc1-c1cccc2cc(S(=O)(=O)Nc3nccs3)ccc12 [Example 41] | – | 290 nM | – | –
18 | CN1CC=C(c2cc(C(F)(F)F)ccc2-c2nccc3cc(S(=O)(=O)Nc4ccncn4)ccc23)CC1 [Example 68, 1-(2-(1-METHYL-1,2,3,6-TETRAHYDROPYRIDIN-4-YL)-4-(TRIFLUOROMETHYL)PHENYL)-N-(PYRIMIDIN-4-YL)ISOQUINOLINE-6-SULFONAMIDE] | – | 1520 nM | – | –
19 | O=S(=O)(Nc1nccs1)c1ccc2c(N3CCCC3c3ccccc3)cccc2c1 (stereo not drawn) [Example 80] | – | 1200 nM | – | –
20 | O=S(=O)(Nc1nccs1)c1ccc2c(-c3ccc(C(F)(F)F)cc3C3=CCNCC3)nccc2c1 [Example 70, 1-(2-(1,2,3,6-TETRAHYDROPYRIDIN-4-YL)-4-(TRIFLUOROMETHYL)PHENYL)-N-(THIAZOL-2-YL)ISOQUINOLINE-6-SULFONAMIDE] | – | 15 nM | – | –
21 | Cc1cnc(OCC2CCC2)c(-c2nccc3cc(S(=O)(=O)Nc4nccs4)ccc23)c1 [Example 381, 1-(2-(CYCLOBUTYLMETHOXY)-5-METHYLPYRIDIN-3-YL)-N-(THIAZOL-2-YL)ISOQUINOLINE-6-SULFONAMIDE] | – | – | 26.5% | –
22 | CCC1CCCCN1c1ncnc2cc(S(=O)(=O)Nc3nccs3)ccc12 (stereo not drawn) [Example 535, 4-(2-ETHYLPIPERIDIN-1-YL)-N-(THIAZOL-2-YL)QUINAZOLINE-7-SULFONAMIDE] | – | – | 26% | –
23 | COc1cc(Cl)ccc1-c1cccc2cc(S(=O)(=O)Nc3ccn(CCN(C)C)n3)ccc12 [Example 43] | – | 4890 nM | – | –
24 | O=S(=O)(Nc1nccs1)c1ccc2c(-c3ccc(C(F)(F)F)cc3C3=CCNCC3)cccc2c1 [Example 77] | – | 70 nM | – | –
25 | O=S(=O)(Nc1ccncn1)c1ccc2c(-c3ccc(C(F)(F)F)cc3Br)nccc2c1 [Example 66, 1-(2-BROMO-4-(TRIFLUOROMETHYL)PHENYL)-N-(PYRIMIDIN-4-YL)ISOQUINOLINE-6-SULFONAMIDE] | – | 120 nM | – | –

Second part, led by results:

Row | IC50 [2, 3] | IC50 [2, 4] | Nav1.7 Single Point Data IWQ (at […]) (%) [2] | Compound | also measured
26 | 20 nM | – | – | COc1cc(C(F)(F)F)ccc1-c1nncc2cc(S(=O)(=O)Nc3nccs3)ccc12 [Example 253, 1-(2-METHOXY-4-(TRIFLUOROMETHYL)PHENYL)-N-(THIAZOL-2-YL)PHTHALAZINE-6-SULFONAMIDE] | IC50 [1]: 340 nM
27 | – | – | 34.8% | COc1cc(C(F)(F)F)ccc1-c1nccc2cc(S(=O)(=O)Nc3cnncn3)ccc12 [Example 391, 1-(2-METHOXY-4-(TRIFLUOROMETHYL)PHENYL)-N-(1,2,4-TRIAZIN-5-YL)ISOQUINOLINE-6-SULFONAMIDE] | –
28 | – | – | 35.4% | CC(C)c1ccc2[nH]ncc2c1-c1nccc2cc(S(=O)(=O)Nc3ccncn3)ccc12 [Example 430, 1-(5-ISOPROPYL-1H-INDAZOL-4-YL)-N-(PYRIMIDIN-4-YL)ISOQUINOLINE-6-SULFONAMIDE] | –
29 | – | – | 20.6% | Cc1cnc(OC[C@@H]2CCOC2)c(-c2nccc3cc(S(=O)(=O)Nc4nccs4)ccc23)c1 [Example 387, (R)-1-(5-METHYL-2-((TETRAHYDROFURAN-3-YL)METHOXY)PYRIDIN-3-YL)-N-(THIAZOL-2-YL)ISOQUINOLINE-6-SULFONAMIDE] | –
30 | > 10000 nM | – | 46% | O=S(=O)(Nc1ccncn1)c1ccc2c(-c3cccc4cccnc34)nccc2c1 [Example 310, N-(PYRIMIDIN-4-YL)-1-(QUINOLIN-8-YL)ISOQUINOLINE-6-SULFONAMIDE] | –
31 | 4980 nM | – | – | O=S(=O)(Nc1ccncn1)c1ccc2c(Oc3ccc(Cl)c(Cl)c3)nccc2c1 [Example 193, 1-(3,4-DICHLOROPHENOXY)-N-(PYRIMIDIN-4-YL)ISOQUINOLINE-6-SULFONAMIDE] | –
32 | 6390 nM | – | – | COc1c(F)cccc1-c1nccc2cc(S(=O)(=O)Nc3ccncn3)ccc12 [Example 157, 1-(3-FLUORO-2-METHOXYPHENYL)-N-(PYRIMIDIN-4-YL)ISOQUINOLINE-6-SULFONAMIDE] | –
33 | > 10000 nM | – | 45% | Cc1cc2c(cnn2C)cc1-c1nccc2cc(S(=O)(=O)Nc3ccncn3)ccc12 [Example 308] | –
34 | > 10000 nM | – | 32% | O=S(=O)(Nc1ccncn1)c1ccc2c(OCc3ccc(N4CCOCC4)cc3)nccc2c1 [Example 304, 1-((4-MORPHOLINOBENZYL)OXY)-N-(PYRIMIDIN-4-YL)ISOQUINOLINE-6-SULFONAMIDE] | –
35 | 1390 nM | – | – | COc1ncc(F)cc1-c1nccc2cc(S(=O)(=O)Nc3ccncn3)ccc12 [Example 166, 1-(5-FLUORO-2-METHOXYPYRIDIN-3-YL)-N-(PYRIMIDIN-4-YL)ISOQUINOLINE-6-SULFONAMIDE] | –
36 | – | – | 20.2% | CN1CCN(Cc2cccc(-c3nccc4cc(S(=O)(=O)Nc5ccncn5)ccc34)c2)CC1 [Example 431, 1-(3-((4-METHYLPIPERAZIN-1-YL)METHYL)PHENYL)-N-(PYRIMIDIN-4-YL)ISOQUINOLINE-6-SULFONAMIDE] | –
37 | > 10000 nM | – | 30% | N#Cc1cccc2cc(S(=O)(=O)Nc3ncns3)ccc12 [Example 317] | –
38 | 4120 nM | – | – | O=S(=O)(Nc1ccncn1)c1ccc2c(-c3cccc4ccsc34)nccc2c1 [Example 162, 1-(BENZO[B]THIOPHEN-7-YL)-N-(PYRIMIDIN-4-YL)ISOQUINOLINE-6-SULFONAMIDE] | –
39 | – | – | 41.1% | COc1cc(C(=O)CCCCO)ccc1-c1nccc2cc(S(=O)(=O)Nc3ccncn3)ccc12 [Example 463, 1-(4-(5-HYDROXYPENTANOYL)-2-METHOXYPHENYL)-N-(PYRIMIDIN-4-YL)ISOQUINOLINE-6-SULFONAMIDE] | –
40 | > 10000 nM | – | 40% | O=S(=O)(Nc1ccncn1)c1ccc2c(OCc3ccc(-n4ccnc4)cc3)nccc2c1 [Example 301, 1-((4-(1H-IMIDAZOL-1-YL)BENZYL)OXY)-N-(PYRIMIDIN-4-YL)ISOQUINOLINE-6-SULFONAMIDE] | –
